Measured values from US8785460B2, “Tricyclic compounds and use thereof” (Takeda Pharmaceutical Company Limited, priority 2008, dated 2014).

Tests used:
human CRF1 receptor = biological target: T1, human CRF1 receptor (Homo sapiens, UniProt P34998); assay: Measurement of CRF Binding Inhibitory Rate (receptor binding experiment with 125I-CRF); settings: human CRF1 receptor expressing CHO cellular membrane fraction, 50 pM 125I-CRF, room temperature 1.5 hr, 0.05 nM to 10 μM of compound; read-out: IC50 values (CRF binding inhibition)
T1 construct: expressed in transfected cells; host or cells: CHO cells (membrane fraction)
T1 sequence (P34998 24-415): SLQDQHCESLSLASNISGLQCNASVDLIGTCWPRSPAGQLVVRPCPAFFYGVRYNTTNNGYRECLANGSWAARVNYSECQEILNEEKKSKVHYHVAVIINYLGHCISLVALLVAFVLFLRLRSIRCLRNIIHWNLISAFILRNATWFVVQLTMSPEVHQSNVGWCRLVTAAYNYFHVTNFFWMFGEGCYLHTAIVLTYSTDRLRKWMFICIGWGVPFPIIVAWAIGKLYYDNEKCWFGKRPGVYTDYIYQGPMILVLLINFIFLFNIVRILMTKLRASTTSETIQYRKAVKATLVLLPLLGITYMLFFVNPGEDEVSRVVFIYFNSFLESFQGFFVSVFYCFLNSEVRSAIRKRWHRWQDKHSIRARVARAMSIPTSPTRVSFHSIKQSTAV

For `FC(F)(F)C(OC1CC1)c1ccc(Cl)c2nc3n(c12)CCCN3c1ccc(Cl)cc1Cl` (centres unmarked) [Example 308, 9-Chloro-6-[1-(cyclopropyloxy)-2,2,2-trifluoroethyl]-1-(2,4-dichlorophenyl)-1,2,3,4-tetrahydropyrimido[1,2-a]benzimidazole], which IC50 (human CRF1 receptor) is on record?
The IC50 was < 1 µM.

And the melting point?
Its melting point is 197 to 200 °C.

For `COC(c1ccc(Cl)c2nc3n(c12)CCCN3c1ccc(Cl)cc1Cl)C(F)(F)F` (centres unmarked) [Example 309, 9-Chloro-1-(2,4-dichlorophenyl)-6-(2,2,2-trifluoro-1-methoxyethyl)-1,2,3,4-tetrahydropyrimido[1,2-a]benzimidazole], which IC50 (human CRF1 receptor) is on record?
The IC50 was < 1 µM.

What about the melting point of the same molecule?
Its melting point is 161 to 163 °C.

Which results are given for `CCOC(c1ccc(Cl)c2nc3n(c12)CCCN3c1ccc(Cl)cc1Cl)C(F)(F)F` (centres unmarked) [Example 310, 9-Chloro-1-(2,4-dichlorophenyl)-6-(1-ethoxy-2,2,2-trifluoroethyl)-1,2,3,4-tetrahydropyrimido[1,2-a]benzimidazole]?
IC50 (human CRF1 receptor): < 1 µM; melting point: 129 to 131 °C

With `CC(=O)OC(c1ccc(Cl)c2nc3n(c12)CCCN3c1ccc(Cl)cc1Cl)C(F)(F)F` (centres unmarked) [Example 311, 1-[9-Chloro-1-(2,4-dichlorophenyl)-1,2,3,4-tetrahydropyrimido[1,2-a]benzimidazol-6-yl]-2,2,2-trifluoroethyl acetate] as the molecule, how does the IC50 (human CRF1 receptor) read?
The IC50 was < 1 µM.

What about the melting point of the same molecule?
The melting point was 197 to 199 °C.

Which results are given for `Clc1ccc(N2CCCn3c2nc2c(Cl)ccc(N(C4CC4)C4CC4)c23)c(Cl)c1` [Example 320, 9-Chloro-N,N-dicyclopropyl-1-(2,4-dichlorophenyl)-1,2,3,4-tetrahydropyrimido[1,2-a]benzimidazol-6-amine]?
IC50 (human CRF1 receptor): < 1 µM; melting point: 211 to 213 °C

Which IC50 (human CRF1 receptor) does the source give for `Cc1cc(C#N)ccc1N1CCCn2c1nc1c(Cl)ccc(C(OC(F)F)C(F)(F)F)c12` (centres unmarked) [Example 325, 4-{9-chloro-6-[1-(difluoromethoxy)-2,2,2-trifluoroethyl]-3,4-dihydropyrimido[1,2-a]benzimidazol-1(2H)-yl}-3-methylbenzonitrile] here?
The IC50 was < 1 µM.

And the melting point?
Its melting point is 195 to 197 °C.

Which IC50 (human CRF1 receptor) does the source give for `CCC(OC(C)=O)c1ccc(Cl)c2nc3n(c12)CCCCN3c1ncc(Cl)cc1Cl` (centres unmarked) [Example 329, 1-[10-Chloro-1-(3,5-dichloropyridin-2-yl)-2,3,4,5-tetrahydro-1H-[1,3]diazepino[1,2-a]benzimidazol-7-yl]propyl acetate] here?
Its IC50 is < 1 µM.

What about the melting point of the same molecule?
Its melting point is 158 to 160 °C.

With `CCC(OC(C)=O)c1ccc(Cl)c2nc3n(c12)CCCCN3c1ccc(OC)cc1Cl` (centres unmarked) [Example 334, 1-[10-Chloro-1-(2-chloro-4-methoxyphenyl)-2,3,4,5-tetrahydro-1H-[1,3]diazepino[1,2-a]benzimidazol-7-yl]propyl acetate] as the molecule, how does the IC50 (human CRF1 receptor) read?
Its IC50 is < 1 µM.

And the melting point?
Its melting point is 177 to 179 °C.

Which IC50 (human CRF1 receptor) does the source give for `CCN(CC)c1cc(F)cc2nc3n(c12)CCCN3c1ccc(Cl)cc1Cl` [Example 335, 1-(2,4-Dichlorophenyl)-N,N-diethyl-8-fluoro-1,2,3,4-tetrahydropyrimido[1,2-a]benzimidazol-6-amine] here?
The IC50 was < 1 µM.

And the melting point?
The melting point was 142 to 145 °C.

Which results are given for `CCC(CC)c1ccc(Cl)c2nc3n(c12)CCCN3c1cnc(N(C)C)cc1C` [Example 336, 5-[9-Chloro-6-(1-ethylpropyl)-3,4-dihydropyrimido[1,2-a]benzimidazol-1(2H)-yl]-N,N,4-trimethylpyridin-2-amine]?
IC50 (human CRF1 receptor): < 1 µM; melting point: 228 to 230 °C

Which IC50 (human CRF1 receptor) does the source give for `CCC(CC)c1ccc(Cl)c2nc3n(c12)CCCCN3c1cnc(Br)c(C)c1` [Example 338, 1-(6-Bromo-5-methylpyridin-3-yl)-10-chloro-7-(1-ethylpropyl)-2,3,4,5-tetrahydro-1H-[1,3]diazepino[1,2-a]benzimidazole] here?
Its IC50 is < 1 µM.

What about the melting point of the same molecule?
Its melting point is 137 to 140 °C.

Which IC50 (human CRF1 receptor) does the source give for `CCC(CC)c1ccc(Cl)c2nc3n(c12)CCCCN3c1ncc(C#N)cc1C` [Example 339, 6-[10-Chloro-7-(1-ethylpropyl)-2,3,4,5-tetrahydro-1H-[1,3]diazepino[1,2-a]benzimidazol-1-yl]-5-methylpyridine-3-carbonitrile] here?
The IC50 was < 1 µM.

What about the melting point of the same molecule?
Its melting point is 213 °C.

Which results are given for `CCC(CC)c1ccc(Cl)c2nc3n(c12)CCCCN3c1ncc(C(N)=O)cc1C` [Example 340, 6-[10-Chloro-7-(1-ethylpropyl)-2,3,4,5-tetrahydro-1H-[1,3]diazepino[1,2-a]benzimidazol-1-yl]-5-methylpyridine-3-carboxamide]?
IC50 (human CRF1 receptor): < 1 µM; melting point: 234 to 235 °C

For `CCC(CC)c1ccc(Cl)c2nc3n(c12)CCCCN3c1ncc(S(C)(=O)=O)cc1C` [Example 341, 10-Chloro-7-(1-ethylpropyl)-1-[3-methyl-5-(methylsulfonyl)pyridin-2-yl]-2,3,4,5-tetrahydro-1H-[1,3]diazepino[1,2-a]benzimidazole], which IC50 (human CRF1 receptor) is on record?
The IC50 was < 1 µM.

And the melting point?
Its melting point is 137 to 139 °C.

For `CCC(CC)c1ccc(Cl)c2nc3n(c12)CCCCN3c1ncc(C(C)=O)cc1C` [Example 342, 1-{6-[10-Chloro-7-(1-ethylpropyl)-2,3,4,5-tetrahydro-1H-[1,3]diazepino[1,2-a]benzimidazol-1-yl]-5-methylpyridin-3-yl}ethanone], which IC50 (human CRF1 receptor) is on record?
The IC50 was < 1 µM.

What about the melting point of the same molecule?
Its melting point is 142 °C.

Which IC50 (human CRF1 receptor) does the source give for `CCC(CC)c1ccc(Cl)c2nc3n(c12)CCCCN3c1c(C)noc1C` [Example 343, 10-Chloro-1-(3,5-dimethylisoxazol-4-yl)-7-(1-ethylpropyl)-2,3,4,5-tetrahydro-1H-[1,3]diazepino[1,2-a]benzimidazole] here?
The IC50 was < 1 µM.

And the melting point?
Its melting point is 163 to 164 °C.

Which IC50 (human CRF1 receptor) does the source give for `COc1ccc(N2CCCn3c2nc2c(Cl)ccc(C(OCC(F)(F)F)C4CC4)c23)c(C)c1` (centres unmarked) [Example 353, 9-Chloro-6-[cyclopropyl(2,2,2-trifluoroethoxy)methyl]-1-(4-methoxy-2-methylphenyl)-1,2,3,4-tetrahydropyrimido[1,2-a]benzimidazole] here?
The IC50 was < 1 µM.

What about the melting point of the same molecule?
Its melting point is 157 to 158 °C.

With `COc1ccc(N2CCCn3c2nc2c(Cl)ccc(C(O)(C4CC4)C4CC4)c23)c(C)c1` [Example 354, [9-Chloro-1-(4-methoxy-2-methylphenyl)-1,2,3,4-tetrahydropyrimido[1,2-a]benzimidazol-6-yl](dicyclopropyl)methanol] as the molecule, how does the IC50 (human CRF1 receptor) read?
The IC50 was < 1 µM.

And the melting point?
Its melting point is 181 to 182 °C.

Which IC50 (human CRF1 receptor) does the source give for `CCOc1ccc(N2CCCn3c2nc2c(Cl)ccc(C(OC(F)F)C(F)(F)F)c23)c(C)c1` (centres unmarked) [Example 356, 9-Chloro-6-[1-(difluoromethoxy)-2,2,2-trifluoroethyl]-1-(4-ethoxy-2-methylphenyl)-1,2,3,4-tetrahydropyrimido[1,2-a]benzimidazole] here?
The IC50 was < 1 µM.

What about the melting point of the same molecule?
Its melting point is 179 to 182 °C.

Which results are given for `Cc1cc(OC(C)C)ccc1N1CCCn2c1nc1c(Cl)ccc(C(OC(F)F)C(F)(F)F)c12` (centres unmarked) [Example 357, 9-Chloro-6-[1-(difluoromethoxy)-2,2,2-trifluoroethyl]-1-[2-methyl-4-(propan-2-yloxy)phenyl]-1,2,3,4-tetrahydropyrimido[1,2-a]benzimidazole]?
IC50 (human CRF1 receptor): < 1 µM; melting point: 198 to 204 °C

With `CCN(CC)c1cccc2nc3n(c12)CC(OC)CCN3c1ccc(Cl)cc1Cl` (centres unmarked) [Example 358, 1-(2,4-Dichlorophenyl)-N,N-diethyl-4-methoxy-2,3,4,5-tetrahydro-1H-[1,3]diazepino[1,2-a]benzimidazol-7-amine] as the molecule, how does the IC50 (human CRF1 receptor) read?
Its IC50 is < 1 µM.

What about the melting point of the same molecule?
Its melting point is 120 to 122 °C.

With `CCN(CC)c1cccc2nc3n(c12)C=CCCN3c1ccc(Cl)cc1Cl` [Example 362, 1-(2,4-Dichlorophenyl)-N,N-diethyl-2,3-dihydro-1H-[1,3]diazepino[1,2-a]benzimidazol-7-amine] as the molecule, how does the IC50 (human CRF1 receptor) read?
Its IC50 is < 1 µM.

What about the melting point of the same molecule?
Its melting point is 105 to 106 °C.

With `CCN(CC)c1cccc2nc3n(c12)CC(N)CCN3c1ccc(Cl)cc1Cl` (centres unmarked) [Example 363, 1-(2,4-Dichlorophenyl)-N^7,N^7-diethyl-2,3,4,5-tetrahydro-1H-[1,3]diazepino[1,2-a]benzimidazole-4,7-diamine] as the molecule, how does the IC50 (human CRF1 receptor) read?
The IC50 was < 1 µM.

And the melting point?
Its melting point is 149 to 151 °C.

What does the source list for `CCN(CC)c1ccc(F)c2nc3n(c12)CCCN3c1ccc(Cl)cc1Cl` [Example 365, 1-(2,4-Dichlorophenyl)-N,N-diethyl-9-fluoro-1,2,3,4-tetrahydropyrimido[1,2-a]benzimidazol-6-amine]?
IC50 (human CRF1 receptor): < 1 µM; melting point: 170 to 172 °C

Which results are given for `COc1ccc(C(O)(C2CC2)C2CC2)c2c1nc1n2CCCN1c1ccc(Cl)cc1Cl` [Example 369, Dicyclopropyl[1-(2,4-dichlorophenyl)-9-methoxy-1,2,3,4-tetrahydropyrimido[1,2-a]benzimidazol-6-yl]methanol]?
IC50 (human CRF1 receptor): < 1 µM; melting point: 219 to 220 °C

Which IC50 (human CRF1 receptor) does the source give for `CCC(NS(C)(=O)=O)c1ccc(Cl)c2nc3n(c12)CCCN3c1ccc(Cl)cc1Cl` (centres unmarked) [Example 373, N-{1-[9-Chloro-1-(2,4-dichlorophenyl)-1,2,3,4-tetrahydropyrimido[1,2-a]benzimidazol-6-yl]propyl}methanesulfonamide] here?
Its IC50 is < 1 µM.

And the melting point?
Its melting point is 125 to 126 °C.

Which IC50 (human CRF1 receptor) does the source give for `CCNC(=O)NC(CC)c1ccc(Cl)c2nc3n(c12)CCCN3c1ccc(Cl)cc1Cl` (centres unmarked) [Example 374, 1-{1-[9-Chloro-1-(2,4-dichlorophenyl)-1,2,3,4-tetrahydropyrimido[1,2-a]benzimidazol-6-yl]propyl}-3-ethylurea] here?
Its IC50 is < 1 µM.

What about the melting point of the same molecule?
Its melting point is 250 to 252 °C.

What does the source list for `CCC(O)c1ccc(Cl)c2nc3n(c12)CCCN3c1c(Cl)cc(Cl)cc1Cl` (centres unmarked) [Example 391, 1-[9-Chloro-1-(2,4,6-trichlorophenyl)-1,2,3,4-tetrahydropyrimido[1,2-a]benzimidazol-6-yl]propan-1-ol]?
IC50 (human CRF1 receptor): < 1 µM; melting point: 213 to 214 °C
